ChEMBL document CHEMBL1155569, “Synthesis and structures of regioisomeric hydnocarpin-type flavonolignans” (J Nat Prod, 2000)
The source made the active and inactive calls. The rule behind the calls is not given here.

Target: T1, Quinolone resistance protein NorA (Staphylococcus aureus) (UniProt P0A0J7)
T1 sequence (whole entry): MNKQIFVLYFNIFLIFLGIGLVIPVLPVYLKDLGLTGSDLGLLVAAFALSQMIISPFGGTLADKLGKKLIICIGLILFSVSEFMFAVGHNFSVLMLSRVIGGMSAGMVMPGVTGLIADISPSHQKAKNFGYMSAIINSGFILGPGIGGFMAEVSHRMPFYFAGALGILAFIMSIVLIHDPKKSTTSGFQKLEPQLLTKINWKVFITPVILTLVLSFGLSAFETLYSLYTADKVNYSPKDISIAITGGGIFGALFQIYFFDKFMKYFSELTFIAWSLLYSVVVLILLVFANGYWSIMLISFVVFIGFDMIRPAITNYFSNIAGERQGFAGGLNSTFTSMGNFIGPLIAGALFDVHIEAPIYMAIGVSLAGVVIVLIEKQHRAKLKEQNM
Assay: Inhibition of Staphylococcus aureus NorA MDR efflux pump

Activity	Structure (SMILES)
Active	COc1cc([C@H]2Oc3c(OC)cc(-c4cc(=O)c5c(O)cc(O)cc5o4)cc3O[C@@H]2CO)ccc1O (racemic)
Active	COc1cc([C@H]2Oc3cc(-c4cc(=O)c5c(O)cc(O)cc5o4)cc(OC)c3O[C@@H]2CO)ccc1O (racemic)
Active	COc1cc([C@H]2Oc3cc(-c4cc(=O)c5c(O)cc(O)cc5o4)ccc3O[C@@H]2CO)ccc1O (racemic)
Active	COc1cc([C@H]2Oc3ccc(-c4cc(=O)c5c(O)cc(O)cc5o4)cc3O[C@@H]2CO)ccc1O (racemic)
